In patent publication US20240066137A1, “NOVEL PROTEIN CONJUGATE, AND USE THEREOF FOR PREVENTING OR TREATING NONALCOHOLIC STEATOHEPATITIS, OBESITY AND DIABETES” (ONEGENE BIOTECHNOLOGY INC., priority 2020, published 2024):
Like-named read-outs stand apart in the source and are kept apart here. Blank lines part the entries; values can stand above or below the substance they belong to.

Columns and labels:
[1] = target: GLP-1R (GLP-1 acceptor) (Homo sapiens, UniProt P43220); assay: cAMP accumulation assay, GLP-1 acceptor overexpressing cells
[2] = system: C57BL/6J mice in which fatty liver was induced by feeding MCD; assay: In-vivo efficacy against non-alcoholic steatohepatitis (MCD diet mice); set-up: species or system mouse; ALT / Hepatic TGF-β / Hepatic Triglyceride: unit not given here; details: for ALT: dulaglutide 2 nmol/kg s.c. 1 time/2 days, 14 times; for Hepatic TGF-β: liver tissue ELISA; for Hepatic Triglyceride / Lobular inflammation score (Lobular inflammation) / NAS (NAFLD Activity Score) / Steatosis score (Steatosis): liver tissue
Source text: The MCD mouse model is the most typically used method for efficacy testing against non-alcoholic steatohepatitis, and it is known that the histological appearance of the induced liver tissue from week 2 to week 4 is histologically similar to that of human non-alcoholic steatohepatitis. There are many precedent cases in which a number of pharmaceutical companies and academia conducted tests with various substances.
Fatty liver was induced by feeding MCD to male C57BL/6J mice for 8 weeks, and then the mice were divided into 6 groups shown in Table 7 below, and drug administration was performed for 4 weeks. As a comparative substance, two currently commercially available drugs, liraglutide (Saxenda) and dulaglutide (Trulycity), were used. The administered composition was repeatedly administered subcutaneously using a disposable syringe according to each administration cycle. […] The normal control group was fed with MCS (Methionine and Choline Sufficient L-Amino Acid Diet).
During the 4-week administration period, general symptoms and behavior were observed, and body weight was measured once a week after the start of administration and on the day of tissue extraction. Blood collection and liver tissue extraction were performed on the day of the end of observation, and blood was subjected to a hematological-biochemical test, and the extracted liver tissue was subjected to a histopathological test.
Alanine aminotransferase (ALT), which is used as the most basic indicator of liver disease, was measured through a hematological-biochemical test, and the results are shown in Table 8 below and FIG. 21.
In addition, histopathological test was performed by observation through H&E and Masson's trichrome staining, and the results are shown in FIG. 23. In the case of non-alcoholic steatohepatitis, steatosis and inflammation in lobules occurs, and inflammatory cells can be identified by tissue staining.
In addition, based on the evaluation criteria shown in Table 10 below, steatosis score, lobular inflammation score, and NAS (NAFLD activity score) were evaluated.
In addition, triglyceride accumulation in the liver tissue was analyzed using the Triglyceride Assay Kit, and the results are shown in Table 15 below and FIG. 28.
The mice were divided into 4 groups shown in Table 16 below, and the experiment was conducted in the same manner as in Test Example 4 above. As a comparative substance, the currently commercially available dulaglutide (Trulycity) was used.

[3] = target: NF-κB activity by IL-1β; assay: NF-κB reporter gene luciferase assay; assay type: cell-based; details: IL-1β stimulated
Procedure: The cells were cultured to 70-80% full in a T-75 flask. The medium was removed and washed once with 5 mL of the pre-warmed PBS. PBS was removed, and 1 mL of TryPLE Express was added, and incubated for 5 minutes in an incubator at 37° C. and 5% CO2, and the cells were detached. It was mixed with 4 mL of assay medium (10% FBS, 1% antibiotic in DMEM), and the mixture was transferred to a 15 mL tube, centrifuged at 1,000 rpm for 3 minutes, and then again released in 5 mL of assay medium. The number of cells was counted, and the concentration was allowed to be 500,000 cells/mL. It was transferred to a reservoir, and 40 μL per well was dispensed into a white 96-well half-area cell culture plate using a multi-channel pipette (20,000 cells/well). Only 40 μL of assay medium was dispensed into the blank well. The cells were incubated in an incubator at 37° C. and 5% CO2 for 24 hours to allow to be attached.
5 μL of each of the reference (10×) and sample (10×) prepared by 4-fold serial dilution was dispensed in duplicate. Thereafter, 5 μL of 50 pM IL-1β (10×) was dispensed and incubated in an incubator at 5% CO2 for 4 hours. 50 μL of ONE-Glo reagent (Promega, Cat. No. E6120) was each dispensed and cultured at room temperature for 5 minutes, and then the luminescence was measured with a Synergy Neo2 instrument. At this time, before treatment with ONE-Glo reagent, the plate was removed from the incubator for 15 minutes and allowed to reach room temperature.
The Delta RLU (relative luminescence unit) (ΔRLU) was calculated as follows.
ΔRLU=RLUsample−RLUblank=Signal−background luminescence
The IC50 values were obtained as ΔRLU by each concentration using GraphPad Prism 8, as follows (curve-fitting of the log (antagonist) vs. normalized response−variable slope equation).
In order to test the ability of the native IL-1RA and the IL-1RA analogue to inhibit NF-κB activity by IL-1β at the cellular level (in vitro), the NF-κB reporter gene luciferase assay was performed in the same manner as in Test Example 3.

[4] = Test Example 4, dulaglutide 2 nmol/kg
[5] = Test Example 5, dulaglutide 2 nmol/kg

Sequence of GLP-1R (GLP-1 acceptor) (P43220 24-463): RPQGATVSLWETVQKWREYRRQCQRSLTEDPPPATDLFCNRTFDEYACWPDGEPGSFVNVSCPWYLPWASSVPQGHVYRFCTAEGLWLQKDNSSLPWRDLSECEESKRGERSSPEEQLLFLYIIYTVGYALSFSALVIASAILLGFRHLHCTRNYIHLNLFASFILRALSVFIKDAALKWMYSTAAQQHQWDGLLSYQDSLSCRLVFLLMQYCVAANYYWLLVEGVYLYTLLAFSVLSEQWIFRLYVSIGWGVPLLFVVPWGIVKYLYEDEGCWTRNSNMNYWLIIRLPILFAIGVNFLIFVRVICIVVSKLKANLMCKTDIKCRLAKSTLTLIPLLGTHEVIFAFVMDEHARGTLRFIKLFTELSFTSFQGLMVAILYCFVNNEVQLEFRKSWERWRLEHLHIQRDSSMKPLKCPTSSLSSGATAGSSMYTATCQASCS

EC50 ([1]; Test Example 9 screening, Cell line: Stable): 0.00145 ± 0.00045 nM | EC50 ([1]; read-out: EC50 GLP-1R, 1, Test Example 1, run 1): 0.00123 nM | EC50 ([1]; read-out: EC50 GLP-1R, Mean, Test Example 1, mean of 2 runs): 0.00107 nM
Substance: Dulaglutide [reference compound]
ALT ([2]; Test Example 4, blood): 220.5 | Hepatic TGF-β [2, 4]: 159.60 | Hepatic Triglyceride [2, 4]: 40.78 | Lobular inflammation score (Lobular inflammation) [2, 4]: 1.5 | NAS (NAFLD Activity Score) [2, 4]: 3.4 | Steatosis score (Steatosis) [2, 4]: 1.9 | AST/ALT value ([2]; Test Example 5, blood, dulaglutide 2 nmol/kg): 0.76 | ALT ([2]; Test Example 5, blood): 246.8 | Hepatic TGF-β [2, 5]: 165.3 | Hepatic Triglyceride [2, 5]: 36.08 | Lobular inflammation score (Lobular inflammation) [2, 5]: 1.6 | NAS (NAFLD Activity Score) [2, 5]: 3.4 | Steatosis score (Steatosis) [2, 5]: 1.8

IC50 ([3]; Test Example 3, mean of 4 runs, read-out: IC50, Mean): 0.0475 nM | IC50 ([3]; Test Example 3, run 1, read-out: IC50, 1): 0.0399 nM | IC50 ([3]; Test Example 3, run 2, read-out: IC50, 2): 0.0515 nM | IC50 ([3]; Test Example 3, run 3, read-out: IC50, 3): 0.0466 nM | IC50 ([3]; Test Example 3, run 4, read-out: IC50, 4): 0.0519 nM | IC50 ([3]; Test Example 9 screening, read-out: IC50): 0.0686 ± 0.00771 nM
Substance: rhIL-1RA: native IL-1RA, SEQ ID NO: 27
